Laboratory results reported in US20230310459A1, “NEUROACTIVE STEROIDS AND THEIR METHODS OF USE” (Sage Therapeutics, Inc., priority 2017, published 2023).
Where two headings read alike, the source gives them in different places.

Test: Phase 1 four-period crossover study of relative bioavailability and food effect, Compound 1 Capsules vs Oral Solution, plasma PK
Format: in vivo, human
Details: for AUC(0-inf) / AUC(0-t) / Cmax / half-life / Tmax: human, po; for AUC(0-inf) / AUC(0-t) / Cmax / half-life / Tmax / AUC0-inf, geometric mean / AUC0-t, geometric mean / Cmax, geometric mean: plasma, healthy subjects; for AUC(0-inf) / AUC(0-t) / Cmax / half-life / Tmax / AUC0-inf geometric mean ratio (GMR) Test/Reference / AUC0-t geometric mean ratio (GMR) Test/Reference / Cmax geometric mean ratio (GMR) Test/Reference: 30 mg; for Tmax: read-out: tmax, median
Description: In a Phase 1, single-center, open-label, four-period, two-sequence crossover study, Compound 1 capsules were evaluated for safety, tolerability, and relative bioavailability. Twelve (12) subjects completed all four periods of the study; subjects who replaced discontinued subjects were allocated to the same randomization sequence as those discontinued. Up to 24 subjects were recruited into the study.
This study consisted of four periods:
Period 1: Subjects (N=20) were randomized on a 1:1 basis to receive a single 30-mg dose of Compound 1 Capsules or a single 30-mg dose of Compound 1 Oral Solution on Day 1. Study drug was administered in the fasting state. Subjects were confined to the inpatient facility from Day −1 until they were discharged on Day 3.
On Day 8, study drug was administered in the fasting state. Subjects were confined to the inpatient facility from Day 7 until they were discharged on Day 10.
Period 3: Food Effect (high fat): All subjects received a single 30 mg dose of Compound 1 Capsules on Day 15. Study drug was administered after a high-fat meal. Subjects were confined to the inpatient facility from Day 14 until they were discharged on Day 17.
Period 4: Food Effect (standard): All subjects received a single 30 mg dose of Compound 1 Capsules on Day 22. Study drug was administered after a standard meal. Subjects were confined to the inpatient facility from Day 21 until they were discharged on Day 24.
Subjects were admitted on the day before the dose was scheduled to be administered (i.e., on Day −1, Day 7, Day 14 and Day 21) in order to undergo the predose assessments.
The Compound 1 Capsules dose was administered as two capsules with 8 ounces (240 mL) of water; both capsules were to be swallowed as quickly as possible. Compound 1 Oral Solution was prepared as approximately 40 mL, to be swallowed all at once, followed by approximately 200 mL of water that was used to rinse the dosing bottle approximately five times. The time of swallowing the initial 40 mL solution or capsules was the time zero for all assessments.
Subjects were not allowed to consume water for 1 hour before and after dosing, except for water consumed during dosing. After 1 hour postdose, water was allowed ad libitum. Subjects were required to fast overnight (minimum of 10 hours) prior to the scheduled dosing. In periods 1 and 2, subjects were administered a standard meal 4 or more hours after the dose was administered.
In period 3 (food effect high-fat meal), subjects were administered a high-fat meal 30 minutes prior to administration of the Compound 1 Capsules. Subjects should have eaten this meal in 30 minutes or less, and the Compound 1 dose was administered 30 minutes after the start of the meal. No other food was allowed for at least 4 hours postdose.
In period 4 (food effect standard meal), subjects were administered a standard meal 30 minutes prior to administration of the Compound 1 Capsules. Subjects should have eaten this meal in 30 minutes or less, and the Compound 1 dose was administered 30 minutes after start of the meal. No other food was allowed for at least 4 hours postdose.
Plasma samples were collected for PK analysis of Compound 1 at the following sampling times relative to dosing in each period: predose on Day 1 and at 15 and 30 minutes and 1, 1.5, 2, 3, 4, 6, 8, 10, 12, 16, 24 (Day 2), and 48 (Day 3) hours postdose.
The plasma samples were kept frozen at approximately −70 to −80° C. until analyzed. They were packed as directed to avoid breakage during transit and with sufficient dry ice to prevent thawing for at least 72 hours. A specimen-identification form or equivalent was completed and sent to the laboratory with each set of samples.
Bioanalyses of plasma samples for the determination of Compound 1 were conducted utilizing validated LC-MS/MS methods at Agilux Laboratories, Worcester, MA.
The BLQ values between evaluable concentrations and the terminal BLQ values were set to ‘missing’. […]

[1] = single 30 mg oral dose, Capsules, fed [high-fat meal]
[2] = single 30 mg oral dose, Capsules, fed [standard meal]
[3] = single 30-mg oral dose, Capsules, fasted
[4] = single 30-mg oral dose, Oral Solution, fasted
[5] = test Fasted Capsules / reference Fasted Solution
[6] = test Fed Capsules [Standard meal] / reference Fasted Capsules
[7] = test Fed Capsules [Standard meal] / reference Fasted Solution
[8] = test Fed Capsules [high-fat meal] / reference Fasted Capsules
[9] = test Fed Capsules [high-fat meal] / reference Fasted Solution

C[C@@]1(O)CC[C@H]2[C@H](CC[C@@H]3[C@@H]2CC[C@]2(C)[C@@H](C(=O)Cn4cc(C#N)cn4)CC[C@@H]32)C1 [Compound 1, 1-(2-((3R,5R,8R,9R,10S,13S,14S,17S)-3-hydroxy-3,13-dimethylhexadecahydro-1H-cyclopenta[a]phenanthren-17-yl)-2-oxoethyl)-1H-pyrazole-4-carbonitrile]
AUC(0-inf) (single 30 mg oral dose, Capsules, fed [high-fat meal], read-out: AUC0-inf, arithmetic mean): 896 ng·h/mL | AUC(0-inf) (single 30 mg oral dose, Capsules, fed [high-fat meal], read-out: AUC0-inf, geometric mean): 867 ng·h/mL | AUC(0-inf) (single 30 mg oral dose, Capsules, fed [high-fat meal], read-out: AUC0-inf, median): 878 ng·h/mL | AUC(0-t) (single 30 mg oral dose, Capsules, fed [high-fat meal], read-out: AUC0-t, arithmetic mean): 846 ng·h/mL | AUC(0-t) (single 30 mg oral dose, Capsules, fed [high-fat meal], read-out: AUC0-t, geometric mean): 834 ng·h/mL | AUC(0-t) (single 30 mg oral dose, Capsules, fed [high-fat meal], read-out: AUC0-t, median): 822 ng·h/mL | Cmax (single 30 mg oral dose, Capsules, fed [high-fat meal], read-out: Cmax, arithmetic mean): 64.4 ng/mL | Cmax (single 30 mg oral dose, Capsules, fed [high-fat meal], read-out: Cmax, geometric mean): 62.8 ng/mL | Cmax (single 30 mg oral dose, Capsules, fed [high-fat meal], read-out: Cmax, median): 66.3 ng/mL | half-life (single 30 mg oral dose, Capsules, fed [high-fat meal], read-out: t1/2, arithmetic mean (converted)): 12.9 h | half-life (single 30 mg oral dose, Capsules, fed [high-fat meal], read-out: t1/2, median (converted)): 12.7 h | Tmax [1]: 5.97 h | AUC(0-inf) (single 30 mg oral dose, Capsules, fed [standard meal], read-out: AUC0-inf, arithmetic mean): 1020 ng·h/mL | AUC(0-inf) (single 30 mg oral dose, Capsules, fed [standard meal], read-out: AUC0-inf, geometric mean): 1010 ng·h/mL | AUC(0-inf) (single 30 mg oral dose, Capsules, fed [standard meal], read-out: AUC0-inf, median): 1060 ng·h/mL | AUC(0-t) (single 30 mg oral dose, Capsules, fed [standard meal], read-out: AUC0-t, arithmetic mean): 852 ng·h/mL | AUC(0-t) (single 30 mg oral dose, Capsules, fed [standard meal], read-out: AUC0-t, geometric mean): 838 ng·h/mL | AUC(0-t) (single 30 mg oral dose, Capsules, fed [standard meal], read-out: AUC0-t, median): 881 ng·h/mL | Cmax (single 30 mg oral dose, Capsules, fed [standard meal], read-out: Cmax, arithmetic mean): 65.2 ng/mL | Cmax (single 30 mg oral dose, Capsules, fed [standard meal], read-out: Cmax, geometric mean): 63.1 ng/mL | Cmax (single 30 mg oral dose, Capsules, fed [standard meal], read-out: Cmax, median): 63.2 ng/mL | half-life (single 30 mg oral dose, Capsules, fed [standard meal], read-out: t1/2, arithmetic mean (converted)): 14.9 h | half-life (single 30 mg oral dose, Capsules, fed [standard meal], read-out: t1/2, median (converted)): 15.8 h | Tmax [2]: 4 h | AUC(0-inf) (single 30-mg oral dose, Capsules, fasted, read-out: AUC0-inf, arithmetic mean): 642 ng·h/mL | AUC(0-inf) (single 30-mg oral dose, Capsules, fasted, read-out: AUC0-inf, geometric mean): 640 ng·h/mL | AUC(0-inf) (single 30-mg oral dose, Capsules, fasted, read-out: AUC0-inf, median): 650 ng·h/mL | AUC(0-t) (single 30-mg oral dose, Capsules, fasted, read-out: AUC0-t, arithmetic mean): 544 ng·h/mL | AUC(0-t) (single 30-mg oral dose, Capsules, fasted, read-out: AUC0-t, geometric mean): 530 ng·h/mL | AUC(0-t) (single 30-mg oral dose, Capsules, fasted, read-out: AUC0-t, median): 552 ng·h/mL | Cmax (single 30-mg oral dose, Capsules, fasted, read-out: Cmax, arithmetic mean): 23 ng/mL | Cmax (single 30-mg oral dose, Capsules, fasted, read-out: Cmax, geometric mean): 21.8 ng/mL | Cmax (single 30-mg oral dose, Capsules, fasted, read-out: Cmax, median): 20.4 ng/mL | half-life (single 30-mg oral dose, Capsules, fasted, read-out: t1/2, arithmetic mean (converted)): 15.6 h | half-life (single 30-mg oral dose, Capsules, fasted, read-out: t1/2, median (converted)): 15.7 h | Tmax [3]: 4.02 h | AUC(0-inf) (single 30-mg oral dose, Oral Solution, fasted, read-out: AUC0-inf, arithmetic mean): 798 ng·h/mL | AUC(0-inf) (single 30-mg oral dose, Oral Solution, fasted, read-out: AUC0-inf, geometric mean): 770 ng·h/mL | AUC(0-inf) (single 30-mg oral dose, Oral Solution, fasted, read-out: AUC0-inf, median): 816 ng·h/mL | AUC(0-t) (single 30-mg oral dose, Oral Solution, fasted, read-out: AUC0-t, arithmetic mean): 795 ng·h/mL | AUC(0-t) (single 30-mg oral dose, Oral Solution, fasted, read-out: AUC0-t, geometric mean): 776 ng·h/mL | AUC(0-t) (single 30-mg oral dose, Oral Solution, fasted, read-out: AUC0-t, median): 788 ng·h/mL | Cmax (single 30-mg oral dose, Oral Solution, fasted, read-out: Cmax, arithmetic mean): 120 ng/mL | Cmax (single 30-mg oral dose, Oral Solution, fasted, read-out: Cmax, geometric mean): 114 ng/mL | Cmax (single 30-mg oral dose, Oral Solution, fasted, read-out: Cmax, median): 115 ng/mL | half-life (single 30-mg oral dose, Oral Solution, fasted, read-out: t1/2, arithmetic mean (converted)): 13.5 h | half-life (single 30-mg oral dose, Oral Solution, fasted, read-out: t1/2, median (converted)): 13.3 h | Tmax [4]: 1 h | AUC0-inf, geometric mean [1]: 866.90 ng·h/mL | AUC0-t, geometric mean [1]: 834.06 ng·h/mL | AUC0-inf, geometric mean [2]: 1013.04 ng·h/mL | AUC0-t, geometric mean [2]: 837.55 ng·h/mL | Cmax, geometric mean [2]: 63.12 ng/mL | AUC0-inf, geometric mean [3]: 639.69 ng·h/mL | AUC0-t, geometric mean [3]: 529.62 ng·h/mL | Cmax, geometric mean [3]: 21.81 ng/mL | AUC0-inf, geometric mean [4]: 770.31 ng·h/mL | AUC0-t, geometric mean [4]: 776.27 ng·h/mL | AUC0-inf geometric mean ratio (GMR) Test/Reference [5]: 0.830 | AUC0-t geometric mean ratio (GMR) Test/Reference [5]: 0.682 | Cmax geometric mean ratio (GMR) Test/Reference [5]: 0.191 | AUC0-inf geometric mean ratio (GMR) Test/Reference [6]: 1.584 | AUC0-t geometric mean ratio (GMR) Test/Reference [6]: 1.581 | Cmax geometric mean ratio (GMR) Test/Reference [6]: 2.894 | AUC0-inf geometric mean ratio (GMR) Test/Reference [7]: 1.315 | AUC0-t geometric mean ratio (GMR) Test/Reference [7]: 1.079 | Cmax geometric mean ratio (GMR) Test/Reference [7]: 0.552 | AUC0-inf geometric mean ratio (GMR) Test/Reference [8]: 1.355 | AUC0-t geometric mean ratio (GMR) Test/Reference [8]: 1.575 | Cmax geometric mean ratio (GMR) Test/Reference [8]: 2.879 | AUC0-inf geometric mean ratio (GMR) Test/Reference [9]: 1.125 | AUC0-t geometric mean ratio (GMR) Test/Reference [9]: 1.074 | Cmax geometric mean ratio (GMR) Test/Reference [9]: 0.549
